Tested on: diabetic rats
Assay: Anti-hyperglycemic activity evaluation, Streptozotocin (STZ) model
Format: in vivo, albino rats
Details: for inhibition in vivo at 50 mg/kg: compound 50 mg/kg oral; for Blood glucose level 5-day / Blood glucose level 10-day: mean ± SEM, n=6
Procedure: Diabetes was experimentally generated in albino rats by intraperitoneal injection of a solution of STZ (60 mg/kg) in sterile normal saline. […] Rats were partitioned into 8 groups consisting of 6 rats in each group (n=6). The control group consisted of the first group of diabetic animals serving as vehicle control and treated orally with carboxymethylcellulose (CMC) (0.5%, 1 ml) alone; Group 2 of diabetic rats was treated with rosiglitazone 100 mg/kg. […] Blood collections were operated by tail vein sampling. The measurements of blood glucose were performed at 0, 5 and 10 days interval. Bayer's Contour TS system was used in order to monitor blood glucose level. In overnight-fasted rats, fasting blood glucose level was measured in all the groups as a base line at 0 time. All blood glucose data were expressed as mean±SEM. The analysis of the data including the variance analysis (ANOVA) and all mean comparisons were accomplished by Tukey-Kramer method. Results are regarded as significant when P<0.01. The anti-hyperglycemic activity (AA) was presented as % AA and computed as follows: % AA=100×[blood glucose level (0-day)−blood glucose level (10-day)]/[blood glucose level (0-day)].

[1] = Rattus norvegicus, 240 h, % AA=100×[glucose (0-day)−glucose (10-day)]/[glucose (0-day)]
[2] = compound 50 mg/kg oral for 7 continuous days

SMILES	inhibition in vivo at 50 mg/kg [1] [%]	Blood glucose level 5-day [2] [mg/dL]	Blood glucose level 10-day [2] [mg/dl]	inhibition in vivo at 100 mg/kg (Rattus norvegicus, po, 240 h, rosiglitazone 100 mg/kg, % AA=100×[glucose (0-day)−glucose (10-day)]/[glucose (0-day)]) [%]	Blood glucose level 5-day (rosiglitazone 100 mg/kg) [mg/dL]	Blood glucose level 10-day (rosiglitazone 100 mg/kg) [mg/dl]
O=C(CCOc1ccc(C=C2C(=O)NNC2=O)cc1)Nc1nc2ccc(OC(F)(F)F)cc2s1 [Compound 10, 3-(4-((3,5-dioxopyrazolidin-4-ylidene)methyl)phenoxy)-N-(6-(trifluoromethoxy)benzo[d]thiazol-2-yl)propanamide]	69.8	153.2 ± 4.2	105.2 ± 4.7	–	–	–
Cc1cc2nc(NC(=O)COc3ccc(C=C4C(=O)NNC4=O)cc3)sc2cc1Cl [Compound 4, N-(6-chloro-5-methylbenzo[d]thiazol-2-yl)-2-(4-((3,5-dioxopyrazolidin-4-ylidene)methyl)phenoxy)acetamide]	66.4	160.2 ± 4.1	113.4 ± 2.6	–	–	–
O=C(COc1ccc(C=C2C(=O)NNC2=O)cc1)Nc1nc2c(Cl)cc(F)cc2s1 [Compound 7, N-(4-chloro-6-fluorobenzo[d]thiazol-2-yl)-2-(4-((3,5-dioxopyrazolidin-4-ylidene)methyl)phenoxy)acetamide]	66.3	174.1 ± 4.2	115.2 ± 4.2	–	–	–
O=C(COc1ccc(C=C2C(=O)NNC2=O)cc1)Nc1nc2ccc(Cl)cc2s1 [Compound 1, N-(6-chlorobenzo[d]thiazol-2-yl)-2-(4-((3,5-dioxopyrazolidin-4-ylidene)methyl)phenoxy)acetamide]	63.5	157.5 ± 3.7	123.9 ± 4.2	–	–	–
CCc1cc2nc(NC(=O)CCOc3ccc(C=C4C(=O)NNC4=O)cc3)sc2cc1Cl [Compound 12, N-(6-chloro-5-ethylbenzo[d]thiazol-2-yl)-3-(4-((3,5-dioxopyrazolidin-4-ylidene)methyl)phenoxy)propanamide]	64.2	171.6 ± 5.1	121.9 ± 3.6	–	–	–
O=C(COc1ccc(C=C2C(=O)NNC2=O)cc1)Nc1nc2ccc(C(F)(F)F)cc2s1 [Compound 2, 2-(4-((3,5-dioxopyrazolidin-4-ylidene)methyl)phenoxy)-N-(6-(trifluoromethyl)benzo[d]thiazol-2-yl)acetamide]	64.3	163.7 ± 2.8	123.4 ± 3.5	–	–	–
Cc1c(Cl)ccc2nc(NC(=O)COc3ccc(C=C4C(=O)NNC4=O)cc3)sc12 [Compound 6, N-(6-chloro-7-methylbenzo[d]thiazol-2-yl)-2-(4-((3,5-dioxopyrazolidin-4-ylidene)methyl)phenoxy)acetamide]	58.6	161.3 ± 4.5	143.9 ± 5.3	–	–	–
Cc1c(Cl)ccc2nc(NC(=O)CCOc3ccc(C=C4C(=O)NNC4=O)cc3)sc12 [Compound 13, N-(6-chloro-7-methylbenzo[d]thiazol-2-yl)-3-(4-((3,5-dioxopyrazolidin-4-ylidene)methyl)phenoxy)propanamide]	65.5	168.4 ± 4.3	119.1 ± 4.3	–	–	–
CCc1cc2nc(NC(=O)COc3ccc(C=C4C(=O)NNC4=O)cc3)sc2cc1Cl [Compound 5, N-(6-chloro-5-ethylbenzo[d]thiazol-2-yl)-2-(4-((3,5-dioxopyrazolidin-4-ylidene)methyl)phenoxy)acetamide]	62.8	155.3 ± 3.9	127.1 ± 3.1	–	–	–
O=C(CCOc1ccc(C=C2C(=O)NNC2=O)cc1)Nc1nc2ccc(C(F)(F)F)cc2s1 [Compound 9, 3-(4-((3,5-dioxopyrazolidin-4-ylidene)methyl)phenoxy)-N-(6-(trifluoromethyl)benzo[d]thiazol-2-yl)propanamide]	70.1	159.6 ± 4.6	105.4 ± 3.2	–	–	–
Cc1cc2nc(NC(=O)CCOc3ccc(C=C4C(=O)NNC4=O)cc3)sc2cc1Cl [Compound 11, N-(6-chloro-5-methylbenzo[d]thiazol-2-yl)-3-(4-((3,5-dioxopyrazolidin-4-ylidene)methyl)phenoxy)propanamide]	68.4	168.7 ± 3.4	107.0 ± 2.4	–	–	–
CN(CCOc1ccc(CC2SC(=O)NC2=O)cc1)c1ccccn1 (stereo not drawn) [Rosiglitazone, reference compound]	–	–	–	62	162.1 ± 3.8	129.7 ± 3.7
O=C(CCOc1ccc(C=C2C(=O)NNC2=O)cc1)Nc1nc2ccc(Cl)cc2s1 [Compound 8, N-(6-chlorobenzo[d]thiazol-2-yl)-3-(4-((3,5-dioxopyrazolidin-4-ylidene)methyl)phenoxy)propanamide]	68.7	166.5 ± 3.7	106.1 ± 5.1	–	–	–
O=C(CCOc1ccc(C=C2C(=O)NNC2=O)cc1)Nc1nc2c(Cl)cc(F)cc2s1 [Compound 14, N-(4-chloro-6-fluorobenzo[d]thiazol-2-yl)-3-(4-((3,5-dioxopyrazolidin-4-ylidene)methyl)phenoxy)propanamide]	68.9	162.5 ± 5.6	109.6 ± 5.4	–	–	–
O=C(COc1ccc(C=C2C(=O)NNC2=O)cc1)Nc1nc2ccc(OC(F)(F)F)cc2s1 [Compound 3, 2-(4-((3,5-dioxopyrazolidin-4-ylidene)methyl)phenoxy)-N-(6-(trifluoromethoxy)benzo[d]thiazol-2-yl)acetamide]	59.5	172.4 ± 3.4	141.6 ± 2.8	–	–	–
